What was measured:
Assay in all cases: relative viability (nuclei count vs DMSO), 5 days (fraction); higher = more cells survive
Linsitinib + OSI-027 = compound: C[C@]1(O)C[C@@H](c2nc(-c3ccc4ccc(-c5ccccc5)nc4c3)c3c(N)nccn32)C1 [Linsitinib] + COc1cccc2cc(-c3nc([C@H]4CC[C@H](C(=O)O)CC4)n4ncnc(N)c34)[nH]c12 [OSI-027] (partner 0.5 µM)
In short: (§1)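 For relative viability, nuclei counts in treated wells were divided by those in vehicle wells. Lung cancer cell lines had been pin-tool dosed in 1536-well plates the day after seeding and cultured for 5 days, then fixed and stained in one step (final 0.05% Triton X-100, 1% formaldehyde, 1 ug/ml Hoechst) and imaged at 4×. Doses were one drug alone or a fixed anchor-drug dose plus five library-drug doses (not always all listed) in √10 steps, and values are duplicate-plate medians.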

Linsitinib + Trametinib = compound: C[C@]1(O)C[C@@H](c2nc(-c3ccc4ccc(-c5ccccc5)nc4c3)c3c(N)nccn32)C1 [Linsitinib] + CC(=O)Nc1cccc(-n2c(=O)n(C3CC3)c(=O)c3c(Nc4ccc(I)cc4F)n(C)c(=O)c(C)c32)c1 [Trametinib] (partner 0.02 µM)
In short: as §1

Ispinesib + Foretinib = compound: Cc1ccc(C(=O)N(CCCN)[C@@H](c2nc3cc(Cl)ccc3c(=O)n2Cc2ccccc2)C(C)C)cc1 [Ispinesib] + COc1cc2c(Oc3ccc(NC(=O)C4(C(=O)Nc5ccc(F)cc5)CC4)cc3F)ccnc2cc1OCCCN1CCOCC1 [Foretinib] (partner 0.25 µM)
In short: as §1

Ispinesib + Bortezomib = compound: Cc1ccc(C(=O)N(CCCN)[C@@H](c2nc3cc(Cl)ccc3c(=O)n2Cc2ccccc2)C(C)C)cc1 [Ispinesib] + CC(C)C[C@H](NC(=O)[C@H](Cc1ccccc1)NC(=O)c1cnccn1)B(O)O [Bortezomib] (partner 0.002 µM)
In short: as §1

Cell Line	relative viability (Linsitinib + OSI-027; first compound 0.01 µM)	relative viability (Linsitinib + OSI-027; first compound 0.03162 µM)	relative viability (Linsitinib + OSI-027; first compound 0.1 µM)	relative viability (Linsitinib + OSI-027; first compound 0.3162 µM)	relative viability (Linsitinib + OSI-027; first compound 1 µM)	relative viability (Linsitinib + Trametinib; first compound 0.01 µM)	relative viability (Linsitinib + Trametinib; first compound 0.03162 µM)	relative viability (Linsitinib + Trametinib; first compound 0.1 µM)	relative viability (Linsitinib + Trametinib; first compound 1 µM)	relative viability (Ispinesib + Foretinib; first compound 0.001 µM)	relative viability (Ispinesib + Foretinib; first compound 0.003162 µM)	relative viability (Ispinesib + Foretinib; first compound 0.01 µM)	relative viability (Ispinesib + Foretinib; first compound 0.03162 µM)	relative viability (Ispinesib + Foretinib; first compound 0.1 µM)	relative viability (Ispinesib + Bortezomib; first compound 0.001 µM)	relative viability (Ispinesib + Bortezomib; first compound 0.003162 µM)	relative viability (Ispinesib + Bortezomib; first compound 0.01 µM)	relative viability (Ispinesib + Bortezomib; first compound 0.03162 µM)	relative viability (Ispinesib + Bortezomib; first compound 0.1 µM)	relative viability (Linsitinib + Trametinib; first compound 0.3162 µM)
NCI-H650	0.524	0.527	0.541	0.256	0.27	1.04	1.06	0.902	0.87	1.04	1.04	1.09	0.985	0.896	0.875	1.25	0.826	0.582	0.355	–
IA-LM	–	–	–	–	–	–	–	–	–	1.21	1.51	1.45	1.06	0.132	1.09	0.814	0.866	0.0909	0.111	–
A-427	0.448	0.432	0.5	–	0.357	0.779	0.69	0.707	0.626	1.06	1.22	1.16	1.07	0.762	0.98	1.07	1.01	0.351	0.206	–
NCI-H2347	0.36	0.517	0.261	–	0.356	0.277	0.274	0.303	0.418	–	1.12	1.16	0.669	0.904	–	1	0.665	1.08	0.758	0.287
NCI-H1793	0.25	0.314	0.246	0.205	0.175	0.414	0.479	0.457	0.395	0.711	0.585	0.958	0.637	0.194	–	–	–	–	–	0.36
NCI-H1651	0.646	0.654	0.646	0.581	0.543	0.827	0.861	0.884	0.824	0.973	0.768	1.01	0.561	0.147	0.934	1.16	0.926	0.796	0.712	0.777
HCC-78	0.377	0.379	0.31	0.377	0.347	–	0.913	0.698	0.578	0.558	0.567	0.542	0.525	0.559	0.504	0.531	0.459	0.308	0.394	0.736
NCI-H23	0.722	0.64	0.606	0.206	0.251	0.49	0.371	0.337	0.256	1.05	1.03	1.17	0.934	0.299	0.977	1.09	1.6	0.331	0.241	0.244
LOU-NH91	0.714	0.704	0.7	0.712	0.527	0.766	0.727	0.779	0.715	0.917	0.879	0.957	0.829	0.472	0.507	0.507	0.575	0.444	0.395	0.56
LXF-289	0.769	0.757	0.795	–	0.515	0.641	0.535	0.674	0.665	0.911	0.978	1.09	0.894	0.895	0.993	0.992	1.14	0.799	0.118	0.519
NCI-H460	0.736	0.646	0.701	0.507	0.304	0.136	0.137	0.196	0.0792	0.901	0.995	1.13	0.879	0.0487	1.53	1.48	–	0.793	0.0396	–
NCI-H1792	–	0.728	0.619	0.481	0.292	0.506	0.432	0.335	0.335	–	–	–	–	–	1.14	1.02	1.09	0.797	0.337	0.32
EMC-BAC-2	0.365	0.377	0.336	0.341	0.247	0.93	0.939	0.82	0.593	1.03	0.621	0.997	0.818	0.39	1.06	1.13	1.27	0.671	0.214	0.575
CAL-12T	0.625	0.688	0.679	0.351	0.297	0.347	0.364	0.292	0.318	1.2	1.06	1.31	0.938	0.197	0.961	1.4	0.955	0.579	0.184	0.28
ChaGo-K-1	0.613	0.627	0.573	0.319	0.522	0.947	0.973	0.892	0.961	0.909	0.867	0.993	0.926	0.629	1.02	1.45	1.11	0.966	0.379	–
